Key:
seed proteins = assay: ABPP labelling of a tomato seed extract with four fluorescent probes in parallel (FIG. 2); assay type: biochemical; conditions: plant seed extract, 2 μM probe, buffers NaOAc pH 5.5 or Tris pH 7.6 with 1 mM DTT
diagnostic marker 4 = assay: Single seed-ABPP of unprimed and primed tomato seeds with MV151 (FIG. 17); assay type: biochemical; conditions: 4 hours, Tris pH 7.5
From the text: A: Structure of MV151 (see also FIG. 7). This probe consists of a vinylsulfonate (VS) reactive groups, a leucine tripeptide binding group as linker, and a fluorescence bodipy reporter tag (left grey circle) (MV151: Verdoes et al., (2006) Chem. Biol. 13: 1217-1226). B: MV151 was used for detection of a diagnostic marker for primed seeds in tomato. […] Proteins were separated on 14% protein gels and analyzed by scanning for fluorescent proteins (ex 532 nm/em 575 nm) and stained with coomassie. […] This is an Example of successful identification of primed seeds by ABPP of the present invention without need for germination of the seeds.

In the case of `COc1ccc(C2=[N+]3C(=Cc4c(C)c(CCC(=O)NCCCCCC(=O)NCCCCCC(=O)NCCCCCC(=O)N[C@@H](CC(C)C)C(=O)N[C@@H](CC(C)C)C(=O)N[C@H](/C=C/S(C)(=O)=O)CC(C)C)c(C)n4[B-]3(F)F)C=C2)cc1` [MV151], the “labelling of seed proteins on fluorescence gel” value (seed proteins) is reported as “Robust labelling”, the “seeds in which diagnostic marker 4 is detected” value (diagnostic marker 4; primed A1 seeds, 14 of 14, 2 μM probe) is reported as 100% and the “seeds in which diagnostic marker 4 is detected” value (diagnostic marker 4; unprimed A1 seeds, 4 of 14, 2 μM probe) is reported as 36%.

Reference: US20140193831A1, “SEED TRAIT PREDICTION BY ACTIVITY-BASED PROTEIN PROFILING” (GAUTIER SEMENCES, priority 2011, published 2014)
